From US20250215010A1, “DIAZABICYCLOOCTANE DERIVATIVES USEFUL AS MATRIX METALLOPROTEINASE INHIBITORS” (VASA THERAPEUTICS SPOLKA Z OGRANICZONA ODPOWIEDZIALNOSCIA, priority 2022, published 2025)
Read-outs that look alike come from different tables or passages of the source.

Assays:
Assay type in all cases: biochemical
MMP1 = molecular target: T1, MMP1 (Homo sapiens, UniProt P03956); experiment: MMP-1 colorimetric inhibition assay (Enzo kit BML-AK404); conditions: thiopeptide substrate, absorbance 415 nm; read-out: MMP 1 IC50 class
T1 sequence (P03956 100-269 limits assumed): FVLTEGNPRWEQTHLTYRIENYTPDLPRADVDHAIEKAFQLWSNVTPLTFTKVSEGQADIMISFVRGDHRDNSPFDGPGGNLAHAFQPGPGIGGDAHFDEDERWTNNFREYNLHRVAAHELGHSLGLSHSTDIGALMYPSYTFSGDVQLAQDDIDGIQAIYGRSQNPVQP
Outline: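 Colorimetric kit run per manufacturer protocol. MMP-1 cleaves a thiopeptide substrate (Ac-PLG-[2-mercapto-4-methylpentanoyl]-LG-OC2H5); released thiol reacts with DTNB, monitored at 415 nm. IC50 (nM) from inhibition curves of normalized values.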

MMP2 = molecular target: T2, MMP2 (Homo sapiens, UniProt P08253); experiment: MMP-2 colorimetric inhibition assay (Enzo kit BML-AK408); conditions: thiopeptide substrate, absorbance 415 nm; read-out: MMP 2 IC50 class
T2 sequence (P08253 110-660): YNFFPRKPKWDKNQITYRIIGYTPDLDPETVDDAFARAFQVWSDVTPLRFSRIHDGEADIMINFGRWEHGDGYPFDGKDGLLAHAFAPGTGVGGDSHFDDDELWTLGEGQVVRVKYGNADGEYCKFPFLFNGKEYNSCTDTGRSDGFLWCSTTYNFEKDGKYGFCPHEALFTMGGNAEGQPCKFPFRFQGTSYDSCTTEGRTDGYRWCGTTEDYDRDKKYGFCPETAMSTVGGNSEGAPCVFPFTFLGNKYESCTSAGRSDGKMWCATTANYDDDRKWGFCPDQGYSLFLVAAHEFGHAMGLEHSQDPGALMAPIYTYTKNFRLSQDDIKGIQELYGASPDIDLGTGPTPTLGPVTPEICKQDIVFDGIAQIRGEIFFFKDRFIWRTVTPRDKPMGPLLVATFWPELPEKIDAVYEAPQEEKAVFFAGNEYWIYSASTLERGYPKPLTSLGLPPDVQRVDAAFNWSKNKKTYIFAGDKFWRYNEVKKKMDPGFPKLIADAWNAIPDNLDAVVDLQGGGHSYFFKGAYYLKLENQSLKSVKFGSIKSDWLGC
Outline: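 Cleavage of the thiopeptide Ac-PLG-[2-mercapto-4-methylpentanoyl]-LG-OC2H5 releases a sulfhydryl that reacts with DTNB, read at 415 nm per the kit protocol. IC50 values (nM) come from inhibition curves of normalized data.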

MMP9 = MMP9 (Homo sapiens, UniProt P14780); experiment: MMP-9 colorimetric inhibition assay (Enzo kit BML-AK410); conditions: thiopeptide substrate, absorbance 415 nm; read-out: MMP 9 IC50 class
Outline: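 Colorimetric thioester-substrate assay: hydrolysis of Ac-PLG-[2-mercapto-4-methylpentanoyl]-LG-OC2H5 frees a thiol that reacts with DTNB, read at 415 nm. Run per kit protocol. IC50 (nM) taken from inhibition curves of normalized values.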

MMP13 = molecular target: T3, MMP13 (Homo sapiens, UniProt P45452); experiment: MMP-13 colorimetric inhibition assay (Enzo kit BML-AK412); conditions: thiopeptide substrate, absorbance 415 nm; read-out: MMP 13 IC50 class
T3 construct: purchased Enzo Life Sciences, Inc. BML-AK412
Outline: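 Thiopeptide chromogenic substrate (Ac-PLG-[2-mercapto-4-methylpentanoyl]-LG-OC2H5); MMP-13 hydrolysis of the thioester yields a thiol that reacts with DTNB, read at 415 nm. IC50 values (nM) derived from inhibition curves of normalized data.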

ADAM17 (TACE) = ADAM17 (TACE) (Homo sapiens, UniProt P78536); experiment: TACE fluorometric inhibition assay (Enzo kit BML-AK310); conditions: quenched fluorogenic peptide, ex/em 320/420 nm; read-out: TACE IC50 class
Outline: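 Kit-based TACE assay run per manufacturer's protocol, using quenched fluorogenic peptide Mca-PLAQAV-Dpa-RSSSR-NH2 whose cleavage raises Mca fluorescence. Signal read at ex/em 320/420 nm; IC50 (nM) derived from inhibition curves of normalized values.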

ADAM10 = molecular target: T4, ADAM10 (Homo sapiens, UniProt O14672); experiment: SensoLyte 520 ADAM10 fluorometric activity assay (AnaSpec AS-72226)
T4 construct: purchased AnaSpec, Inc. AS-72226
T4 sequence (O14672 214-748): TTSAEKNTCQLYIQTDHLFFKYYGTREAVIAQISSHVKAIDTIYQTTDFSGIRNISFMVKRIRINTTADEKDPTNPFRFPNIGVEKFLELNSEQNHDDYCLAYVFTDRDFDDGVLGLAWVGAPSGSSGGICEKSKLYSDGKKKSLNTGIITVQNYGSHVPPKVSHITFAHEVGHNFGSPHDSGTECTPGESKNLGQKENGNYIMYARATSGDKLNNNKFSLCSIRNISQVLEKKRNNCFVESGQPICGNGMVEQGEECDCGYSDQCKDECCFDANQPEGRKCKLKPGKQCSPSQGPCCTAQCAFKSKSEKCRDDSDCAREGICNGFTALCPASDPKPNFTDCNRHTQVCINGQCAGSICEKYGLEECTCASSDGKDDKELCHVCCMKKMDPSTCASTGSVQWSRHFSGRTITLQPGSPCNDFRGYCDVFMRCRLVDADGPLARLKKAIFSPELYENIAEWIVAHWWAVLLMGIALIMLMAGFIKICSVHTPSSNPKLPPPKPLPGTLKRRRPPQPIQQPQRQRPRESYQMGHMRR
Description: The inhibitory activities of the compounds of the invention were assessed in 96-well microplate format using MMP1, MMP2, MMP9 and MMP13 colorimetric assay kits and TACE fluorometric assay kit from Enzo Life Sciences, Inc. The inhibitory effect of the compounds of the invention on ADAM10 activity were evaluated in 96-well microplate format using fluorometric assay from AnaSpec, Inc.
SensoLyte® 520 ADAM10 Activity Assay Kit (catalog #AS-72226) is a complete assay system designed to screen ADAM10 inhibitors using FRET-based peptide substrate containing the 5-FAM/QXL™ 520 fluorophore/quencher pair. The fluorescence of 5-FAM is quenched by QXL™ 520 and recovered upon cleavage of the peptide by active ADAM10.
The inhibitory activity of the compounds of the invention against ADAM10 was tested according to the manufacturer's assay protocol and the fluorescence was monitored at excitation/emission wavelengths=495 nm/520 nm using Tecan Infinite® 200 Pro F Nano^+ microplate reader.
The normalized values were analyzed using GraphPadPrism 9 for Windows (GraphPad Software, San Diego, CA, USA) software by plotting inhibition curves and determining the IC50 values (in nM).

[1] = FRET peptide substrate, ex/em 495/520 nm, read-out: ADAM 10 IC50 class

MMP9, sequence (P14780 94-707): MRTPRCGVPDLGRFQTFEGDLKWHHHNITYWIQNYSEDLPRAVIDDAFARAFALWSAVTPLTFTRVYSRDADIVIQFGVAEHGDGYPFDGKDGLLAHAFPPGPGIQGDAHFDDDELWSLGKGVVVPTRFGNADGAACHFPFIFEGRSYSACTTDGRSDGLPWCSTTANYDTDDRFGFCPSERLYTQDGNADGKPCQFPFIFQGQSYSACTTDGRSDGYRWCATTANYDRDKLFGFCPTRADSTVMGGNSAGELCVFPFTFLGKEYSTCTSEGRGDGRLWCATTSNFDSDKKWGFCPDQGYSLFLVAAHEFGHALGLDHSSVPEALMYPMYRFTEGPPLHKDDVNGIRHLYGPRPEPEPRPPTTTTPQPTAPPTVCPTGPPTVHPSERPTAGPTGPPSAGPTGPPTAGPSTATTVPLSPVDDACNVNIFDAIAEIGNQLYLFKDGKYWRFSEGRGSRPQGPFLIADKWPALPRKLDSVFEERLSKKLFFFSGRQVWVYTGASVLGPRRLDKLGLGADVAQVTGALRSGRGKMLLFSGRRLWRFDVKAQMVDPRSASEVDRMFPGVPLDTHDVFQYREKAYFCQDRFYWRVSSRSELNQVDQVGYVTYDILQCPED
ADAM17 (TACE), sequence (P78536 215-477 limits assumed): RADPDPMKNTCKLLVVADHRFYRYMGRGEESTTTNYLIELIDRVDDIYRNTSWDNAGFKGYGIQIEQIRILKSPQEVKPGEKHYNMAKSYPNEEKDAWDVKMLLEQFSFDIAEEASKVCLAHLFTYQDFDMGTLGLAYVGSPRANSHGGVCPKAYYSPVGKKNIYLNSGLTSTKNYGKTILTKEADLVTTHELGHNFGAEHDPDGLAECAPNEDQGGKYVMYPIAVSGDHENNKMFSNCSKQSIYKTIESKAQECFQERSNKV

| Structure (SMILES) | IC50 (MMP1) [nM] | IC50 (MMP2) [nM] | IC50 (MMP9) [nM] | IC50 (MMP13) [nM] | IC50 (ADAM17 (TACE)) [nM] | IC50 (ADAM10; [1]) [nM] | IC50 (ADAM10) [nM] |
| --- | --- | --- | --- | --- | --- | --- | --- |
| COCCOC(=O)N1[C@@H]2CC[C@H]1[C@H](C(=O)NO)N(S(=O)(=O)c1ccc(Oc3ccc(F)cc3)nc1)C2 [Example 1, (1S,2R,5R)-2-methoxyethyl 3-((6-(4-fluorophenoxy)pyridin-3-yl)sulfonyl)-2-(hydroxycarbamoyl)-3,8-diazabicyclo[3.2.1]octane-8-carboxylate] | 50 to 1000 | < 50 | < 50 | < 50 | 1000 to 10000 | 1000 to 10000 | – |
| COCCOC(=O)N1[C@@H]2CC[C@H]1[C@H](C(=O)NO)N(S(=O)(=O)c1ccc(Oc3ccc(F)cc3)c(F)c1)C2 [Example 5, 2-methoxyethyl (1S,2R,5R)-3-((3-fluoro-4-(4-fluoro-phenoxy)phenyl)-sulfonyl)-2-(hydroxycarbamoyl)-3,8-diazabicyclo[3.2.1]-octane-8-carboxylate] | 50 to 1000 | < 50 | < 50 | < 50 | 50 to 1000 | – | 50 to 1000 |
| COCCOC(=O)N1[C@@H]2CC[C@H]1[C@H](C(=O)NO)N(S(=O)(=O)c1ccc(Oc3ccc(F)cn3)cc1)C2 [Example 7, 2-methoxyethyl (1S,2R,5R)-3-((4-((5-fluoropyridin-2-yl)oxy)phenyl)-sulfonyl)-2-(hydroxycarbamoyl)-3,8-diazabicyclo-[3.2.1]octane-8-carboxylate] | 50 to 1000 | < 50 | < 50 | < 50 | 50 to 1000 | 50 to 1000 | – |
| COCCOC(=O)N1[C@@H]2CC[C@H]1[C@H](C(=O)NO)N(S(=O)(=O)c1ccc(Oc3ccc(Cl)cc3)nc1)C2 [Example 8, 2-methoxyethyl (1S,2R,5R)-3-((6-(4-chlorophenoxy)pyridin-3-yl)sulfonyl)-2-(hydroxycarbamoyl)-3,8-diazabicyclo-[3.2.1]octane-8-carboxylate] | 50 to 1000 | < 50 | < 50 | < 50 | 50 to 1000 | 1000 to 10000 | – |
| COCCOC(=O)N1[C@@H]2CC[C@H]1[C@H](C(=O)NO)N(S(=O)(=O)c1ccc(Oc3ccc(Cl)c(F)c3)nc1)C2 [Example 9, 2-methoxyethyl (1S,2R,5R)-3-((6-(4-chloro-3-fluoro-phenoxy)pyridin-3-yl)sulfonyl)-2-(hydroxycarbamoyl)-3,8-diaza-bicyclo[3.2.1]octane-8-carboxylate] | 50 to 1000 | < 50 | < 50 | < 50 | 50 to 1000 | 1000 to 10000 | – |
| COCCOC(=O)N1[C@@H]2CC[C@H]1[C@H](C(=O)NO)N(S(=O)(=O)N1CCN(Cc3ccc(OC)cc3)CC1)C2 [Example 77, 2-methoxyethyl (1S,2R,5R)-2-(hydroxycarbamoyl)-3-((4-(4-methoxybenzyl)piperazin-1-yl)sulfonyl)-3,8-diazabicyclo[3.2.1]octane-8-carboxylate] | > 10000 | 50 to 1000 | 50 to 1000 | 1000 to 10000 | 1000 to 10000 | – | – |
| COCCOC(=O)N1[C@@H]2CC[C@H]1[C@H](C(=O)NO)N(S(=O)(=O)N1CCN(C(=O)c3ccc(Cl)cc3)CC1)C2 [Example 78, 2-methoxyethyl (1S,2R,5R)-3-((4-(4-chlorobenzoyl)piperazin-1-yl)sulfonyl)-2-(hydroxycarbamoyl)-3,8-diazabicyclo[3.2.1]octane-8-carboxylate] | > 10000 | 1000 to 10000 | 1000 to 10000 | 1000 to 10000 | 1000 to 10000 | – | – |
| COCCOC(=O)N1[C@@H]2CC[C@H]1[C@H](C(=O)NO)N(S(=O)(=O)c1ccc(Oc3nc4ccccc4o3)c(F)c1)C2 [Example 79, 2-methoxyethyl (1S,2R,5R)-3-((4-(benzo[d]oxazol-2-yloxy)-3-fluorophenyl)sulfonyl)-2-(hydroxycarbamoyl)-3,8-diazabicyclo[3.2.1]octane-8-carboxylate] | > 10000 | 50 to 1000 | 1000 to 10000 | 50 to 1000 | 1000 to 10000 | – | – |
| COCCOC(=O)N1[C@@H]2CC[C@H]1[C@H](C(=O)NO)N(S(=O)(=O)c1ccc(Oc3nc4ccc(Cl)cc4o3)c(F)c1)C2 [Example 80, 2-methoxyethyl (1S,2R,5R)-3-((4-((6-chlorobenzo[d]-oxazol-2-yl)oxy)-3-fluorophenyl)-sulfonyl)-2-(hydroxycarbamoyl)-3,8-diazabicyclo-[3.2.1]octane-8-carboxylate] | > 10000 | 1000 to 10000 | 1000 to 10000 | 1000 to 10000 | 1000 to 10000 | – | – |
| COCCOC(=O)N1[C@@H]2CC[C@H]1[C@H](C(=O)NO)N(S(=O)(=O)c1ccc(Oc3nc4cc(Cl)ccc4o3)c(F)c1)C2 [Example 81, 2-methoxyethyl (1S,2R,5R)-3-((4-((5-chlorobenzo[d]-oxazol-2-yl)oxy)-3-fluorophenyl)sulfonyl)-2-(hydroxy-carbamoyl)-3,8-diazabicyclo[3.2.1]-octane-8-carboxylate] | > 10000 | > 10000 | 1000 to 10000 | > 10000 | 1000 to 10000 | – | – |
| COCCOC(=O)N1[C@@H]2CC[C@H]1[C@H](C(=O)NO)N(S(=O)(=O)c1ccc(Oc3nc4ccc(F)cc4o3)c(F)c1)C2 [Example 82, 2-methoxyethyl (1S,2R,5R)-3-((3-fluoro-4-((6-fluoro-benzo[d]oxazol-2-yl)oxy)phenyl)-sulfonyl)-2-(hydroxycarbamoyl)-3,8-diazabicyclo-[3.2.1]octane-8-carboxylate] | > 10000 | 1000 to 10000 | 1000 to 10000 | 1000 to 10000 | 50 to 1000 | – | – |
